Assay results published in ChEMBL document CHEMBL1201862, “PubChem BioAssay data set” (2004).
Activity calls are given as the source filed them.

Key:
[1] = Luminescence Cell-Based Dose Confirmation HTS to Identify Activators of 5'UTR Stem-Loop Driven Alpha-Synuclein mRNA Translation in H4 Neuroglioblastoma Cells. [Related pubchem assays: 1829 (Project Summary), 1814 (Primary HTS)]; format: functional
HeLa = experiment: HeLa cell cytotoxicity, dose response, cytotoxicity control for MITF activator project, CellTiter-Glo luminescence, cherry-pick samples (AID 540259); format: functional, cell-based; settings: Homo sapiens
H4 = experiment: Luminescence Cell-Based Dose Response HTS to Identify Activators of 5'UTR Stem-Loop Driven Prion Protein mRNA Translation in H4 Neuroglioblastoma Cells. [Related pubchem assays: 1829 (Project Summary), 1814 (Primary HTS)]; format: functional; settings: Homo sapiens
[2] = molecular target: G-protein coupled receptor 55 (Homo sapiens, UniProt Q9Y2T6); experiment: GPR55 agonists via beta-arrestin recruitment, primary screen, imaging, U2OS cells, beta-arrestin-GFP redistribution (AID 1961); format: functional
Sequence of G-protein coupled receptor 55 (Q9Y2T6 whole entry): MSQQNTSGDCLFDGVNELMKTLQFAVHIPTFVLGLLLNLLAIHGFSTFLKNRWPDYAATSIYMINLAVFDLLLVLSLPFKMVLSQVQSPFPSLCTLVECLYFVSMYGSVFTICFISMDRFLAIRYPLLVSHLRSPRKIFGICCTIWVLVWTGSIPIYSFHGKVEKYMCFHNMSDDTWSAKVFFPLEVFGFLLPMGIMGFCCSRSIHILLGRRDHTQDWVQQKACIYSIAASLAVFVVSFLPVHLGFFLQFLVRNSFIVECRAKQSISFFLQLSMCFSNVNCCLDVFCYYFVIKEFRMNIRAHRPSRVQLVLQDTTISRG

[3] = Luminescence Cell-Based Dose Response HTS to Identify Activators of Luciferase Translation or Activity in H4 […] Cells. [Related pubchem assays: 1829 (Project Summary), 1814 (Primary HTS)]; format: functional
[4] = molecular target: 72 kDa type IV collagenase (Homo sapiens, UniProt P08253); experiment: Dose Response validation of uHTS RPN11 inhibitor hits using a MMP-2 Fluorescence assay.; format: functional
Sequence of 72 kDa type IV collagenase (P08253 whole entry): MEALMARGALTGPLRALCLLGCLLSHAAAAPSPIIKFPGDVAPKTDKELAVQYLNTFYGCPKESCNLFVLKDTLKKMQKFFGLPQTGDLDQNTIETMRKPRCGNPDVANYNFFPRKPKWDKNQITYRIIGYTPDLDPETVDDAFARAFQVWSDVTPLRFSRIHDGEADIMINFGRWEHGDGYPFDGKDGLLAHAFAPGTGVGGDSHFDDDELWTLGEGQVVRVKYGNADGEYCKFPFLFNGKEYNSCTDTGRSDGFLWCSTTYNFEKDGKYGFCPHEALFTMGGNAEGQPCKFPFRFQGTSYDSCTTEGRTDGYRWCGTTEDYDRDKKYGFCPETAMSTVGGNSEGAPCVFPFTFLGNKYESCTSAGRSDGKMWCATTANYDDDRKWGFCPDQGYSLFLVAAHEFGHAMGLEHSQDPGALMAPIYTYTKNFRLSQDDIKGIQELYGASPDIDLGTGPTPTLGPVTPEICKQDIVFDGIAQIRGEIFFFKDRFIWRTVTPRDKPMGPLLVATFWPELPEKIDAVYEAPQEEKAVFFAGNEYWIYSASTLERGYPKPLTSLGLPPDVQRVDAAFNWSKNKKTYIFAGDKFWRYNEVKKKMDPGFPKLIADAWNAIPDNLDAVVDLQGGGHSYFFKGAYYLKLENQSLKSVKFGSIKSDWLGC

[5] = molecular target: 26S proteasome non-ATPase regulatory subunit 14 (Homo sapiens, UniProt O00487); experiment: inhibition of proteasome subunit RPN11 – biochemical, fluorescence polarization, uHTS hits, confirmation (AID 602368); format: functional
Sequence of 26S proteasome non-ATPase regulatory subunit 14 (O00487 whole entry): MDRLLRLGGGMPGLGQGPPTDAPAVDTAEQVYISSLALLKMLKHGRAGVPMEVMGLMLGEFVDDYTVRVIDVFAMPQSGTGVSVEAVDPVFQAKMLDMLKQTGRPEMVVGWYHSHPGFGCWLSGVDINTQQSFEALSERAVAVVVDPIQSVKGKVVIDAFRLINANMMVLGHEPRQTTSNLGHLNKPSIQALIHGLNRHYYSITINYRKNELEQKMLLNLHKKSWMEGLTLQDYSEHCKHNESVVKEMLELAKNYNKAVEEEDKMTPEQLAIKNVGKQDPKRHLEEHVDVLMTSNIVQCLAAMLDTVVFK

Prothrombin = Prothrombin (Bos taurus, UniProt P00735); experiment: thrombin inhibition, dose response, biochemical, fluorescence polarization, uHTS hits (AID 602369); format: functional
[6] = cytotoxicity in MIN6 insulinoma cells, dose response, cytotoxicity control, cell-based, mouse insulinoma (AID 2122); format: functional;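 note: confirmatory high-throughput counterscreen run to flag cytotoxic compounds; mouse MIN-6 beta cells carrying an insulin promoter eGFP reporter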
[7] = insulin promoter down-regulators in MIN6 cells, imaging, high-content screening, mouse beta cells (AID 1628); format: functional
Escherichia coli [8] = experiment: microbe, parasite or virus in culture
Escherichia coli [9] = experiment: microbe, parasite or virus in culture; remark: listed apart in the source
[10] = molecular target: Intestinal-type alkaline phosphatase (Homo sapiens, UniProt P09923); experiment: inhibition of human intestinal alkaline phosphatase – biochemical, dose response (AID 488876); format: functional
Sequence of Intestinal-type alkaline phosphatase (Homo sapiens, UniProt P09923) (P09923 whole entry): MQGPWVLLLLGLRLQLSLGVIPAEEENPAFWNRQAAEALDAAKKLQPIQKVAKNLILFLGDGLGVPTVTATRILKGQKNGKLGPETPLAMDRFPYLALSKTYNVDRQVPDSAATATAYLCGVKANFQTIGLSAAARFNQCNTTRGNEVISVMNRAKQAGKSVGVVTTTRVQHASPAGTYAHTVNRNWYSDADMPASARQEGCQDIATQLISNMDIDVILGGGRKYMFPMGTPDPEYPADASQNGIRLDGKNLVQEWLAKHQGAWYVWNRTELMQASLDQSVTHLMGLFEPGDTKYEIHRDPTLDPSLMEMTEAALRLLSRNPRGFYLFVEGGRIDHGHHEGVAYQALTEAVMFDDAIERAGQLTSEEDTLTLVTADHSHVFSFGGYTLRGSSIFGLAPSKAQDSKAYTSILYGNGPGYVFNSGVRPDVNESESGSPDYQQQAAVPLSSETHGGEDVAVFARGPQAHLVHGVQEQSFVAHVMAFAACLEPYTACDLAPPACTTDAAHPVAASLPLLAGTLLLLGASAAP

[11] = molecular target: Intestinal-type alkaline phosphatase (Mus musculus, UniProt P24822); experiment: PubChem AID 488785; format: functional
Sequence of Intestinal-type alkaline phosphatase (Mus musculus, UniProt P24822) (P24822 whole entry): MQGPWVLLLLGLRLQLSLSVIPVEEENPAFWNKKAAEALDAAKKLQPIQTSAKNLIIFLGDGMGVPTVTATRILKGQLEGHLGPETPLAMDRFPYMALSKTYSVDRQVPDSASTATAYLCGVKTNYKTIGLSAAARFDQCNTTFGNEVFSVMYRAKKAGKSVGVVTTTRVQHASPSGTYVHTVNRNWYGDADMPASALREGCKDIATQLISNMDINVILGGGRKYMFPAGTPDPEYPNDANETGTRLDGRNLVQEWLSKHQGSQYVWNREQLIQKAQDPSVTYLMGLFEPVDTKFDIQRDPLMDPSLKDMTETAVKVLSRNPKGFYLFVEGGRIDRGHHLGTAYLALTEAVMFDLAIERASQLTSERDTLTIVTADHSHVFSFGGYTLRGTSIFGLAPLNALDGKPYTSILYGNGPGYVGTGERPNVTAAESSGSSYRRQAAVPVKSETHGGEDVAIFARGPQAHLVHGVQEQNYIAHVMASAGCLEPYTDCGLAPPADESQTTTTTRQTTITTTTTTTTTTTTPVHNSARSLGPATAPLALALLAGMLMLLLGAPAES

[12] = molecular target: FAD-linked sulfhydryl oxidase ALR (Homo sapiens, UniProt P55789); experiment: inhibitors of human ALR sulfhydryl oxidase, dose response, biochemical, H2O2 detection, luminescence, cherry-pick (AID 493248)
Sequence of FAD-linked sulfhydryl oxidase ALR (P55789 whole entry): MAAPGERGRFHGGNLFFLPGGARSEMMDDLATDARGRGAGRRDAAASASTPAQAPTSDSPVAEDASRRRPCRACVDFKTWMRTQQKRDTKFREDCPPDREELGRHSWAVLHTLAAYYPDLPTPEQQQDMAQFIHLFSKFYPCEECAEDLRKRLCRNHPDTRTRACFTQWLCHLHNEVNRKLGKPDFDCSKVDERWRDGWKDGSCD

[13] = molecular target: T1, Alkaline phosphatase, tissue-nonspecific isozyme (Homo sapiens, UniProt P05186); experiment: TNAP enzyme inhibition by screening hits, dose response, selectivity assay for mouse IAP inhibitor project, biochemical, human TNAP, uHTS hits (AID 488906); format: functional
T1 sequence (P05186 whole entry): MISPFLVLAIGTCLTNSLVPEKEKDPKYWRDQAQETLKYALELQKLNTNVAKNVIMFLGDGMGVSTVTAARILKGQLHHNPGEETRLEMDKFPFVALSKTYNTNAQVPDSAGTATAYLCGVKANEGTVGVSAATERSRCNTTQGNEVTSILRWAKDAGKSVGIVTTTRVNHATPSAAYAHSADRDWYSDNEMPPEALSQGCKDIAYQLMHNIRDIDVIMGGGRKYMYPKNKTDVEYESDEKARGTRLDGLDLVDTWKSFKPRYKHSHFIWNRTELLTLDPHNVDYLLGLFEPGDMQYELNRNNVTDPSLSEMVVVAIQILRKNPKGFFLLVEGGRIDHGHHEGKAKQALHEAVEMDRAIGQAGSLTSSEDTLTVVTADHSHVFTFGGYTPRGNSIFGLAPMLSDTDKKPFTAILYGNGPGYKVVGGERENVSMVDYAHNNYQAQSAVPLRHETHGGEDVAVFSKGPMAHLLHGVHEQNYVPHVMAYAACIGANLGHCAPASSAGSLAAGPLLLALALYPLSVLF

Aminopeptidase N = molecular target: T2, Aminopeptidase N (Plasmodium falciparum FcB1/Columbia, UniProt O96935); experiment: P. falciparum M1AAP inhibitors, biochemical, fluorogenic H-Leu-NHMec substrate, 1536-well (AID 1445); design: species or system Plasmodium falciparum 3D7, 3D7
T2 sequence (O96935 whole entry): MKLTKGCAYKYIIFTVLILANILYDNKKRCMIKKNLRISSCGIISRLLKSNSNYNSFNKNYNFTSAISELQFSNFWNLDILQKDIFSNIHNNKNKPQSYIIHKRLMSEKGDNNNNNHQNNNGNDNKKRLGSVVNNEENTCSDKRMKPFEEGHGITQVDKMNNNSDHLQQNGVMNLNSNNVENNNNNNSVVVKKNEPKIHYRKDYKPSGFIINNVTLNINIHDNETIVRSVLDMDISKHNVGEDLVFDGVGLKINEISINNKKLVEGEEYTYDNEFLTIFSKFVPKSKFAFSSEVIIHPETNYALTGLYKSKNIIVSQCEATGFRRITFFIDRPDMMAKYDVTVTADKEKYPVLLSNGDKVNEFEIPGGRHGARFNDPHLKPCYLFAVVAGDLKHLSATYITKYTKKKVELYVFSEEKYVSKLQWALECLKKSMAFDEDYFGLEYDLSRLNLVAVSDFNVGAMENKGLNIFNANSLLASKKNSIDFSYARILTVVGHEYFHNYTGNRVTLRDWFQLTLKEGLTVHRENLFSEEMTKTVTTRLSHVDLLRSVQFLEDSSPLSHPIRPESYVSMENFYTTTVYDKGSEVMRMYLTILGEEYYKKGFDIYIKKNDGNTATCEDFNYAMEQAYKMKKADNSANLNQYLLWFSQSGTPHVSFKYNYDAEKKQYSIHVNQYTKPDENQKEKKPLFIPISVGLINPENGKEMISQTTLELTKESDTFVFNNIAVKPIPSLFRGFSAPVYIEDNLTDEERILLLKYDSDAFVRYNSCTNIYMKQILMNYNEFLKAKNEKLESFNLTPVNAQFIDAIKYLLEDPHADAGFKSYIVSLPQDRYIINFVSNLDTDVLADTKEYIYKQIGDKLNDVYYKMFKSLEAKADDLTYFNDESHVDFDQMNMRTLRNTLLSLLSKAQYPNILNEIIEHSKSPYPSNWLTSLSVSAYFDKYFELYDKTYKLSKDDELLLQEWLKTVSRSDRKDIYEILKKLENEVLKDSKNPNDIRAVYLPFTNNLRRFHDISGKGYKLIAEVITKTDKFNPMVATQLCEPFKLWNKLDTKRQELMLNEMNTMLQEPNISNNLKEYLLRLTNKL

[14] = NIH-3T3 fibroblast cytotoxicity, dose response, cytotoxicity control, cell-based, fluorescence, Alamar Blue, secondary assay (AID 2327); format: functional;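 note: NIH-3T3 mouse fibroblasts cultured with fluconazole at 8 µg/mL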
[15] = C. albicans growth with fluconazole, confirmation, fluorescence, retest (AID 2467); format: functional, cell-based

With `CC(C)C[C@@H](CSc1ccccc1)N1CCN(CC(C)C)CCC1=O` the EC50 [1] was 5.27 µM (active), the AC50 (HeLa) was 147 µM (active) and the EC50 (H4) was > 120 µM (not active). The EC50 [2] was 14.1 µM (inactive) and the EC50 [3] was 41.4 µM (active).
With `CN1C(=O)/C(=C\C=C2/CCCN2C)N(C)C1=S` the IC50 [4] was > 100 µM (inactive), the IC50 [5] was 23.3 µM (active) and the IC50 (Prothrombin) was 42.7 µM (active).
For `NS(=O)(=O)c1ccc(CCNc2ncnc3sccc23)cc1`, the IC50 [6] was 1.06 µM (active) and the IC50 [7] was 2.01 µM (active).
In the case of `c1ccc(Nc2cc(-c3ccccc3)nc3ncnn23)cc1`, the AC50 (Escherichia coli [8]) is reported as 72 µM (active) and the AC50 (Escherichia coli [9]) is reported as 18.4 µM (active).
With `Cc1cc2nc(CS)[nH]c2cc1C` the IC50 [4] was 9.51 µM (active), the IC50 [5] was 51.1 µM (active) and the IC50 (Prothrombin) was > 100 µM (inactive).
In the case of `Cc1ccc(S(=O)(=O)Nc2ccc(O)c(Sc3nc[nH]n3)c2)cc1`, the IC50 [10] is reported as > 100 µM (inactive), the IC50 [11] is reported as 13.8 µM (active) and the AC50 [12] is reported as 3.31 µM (active). The IC50 [13] was > 100 µM (inactive) and the IC50 (Aminopeptidase N) was 83.8 µM (active).
In the case of `Cc1ccc(N2NC(C)(c3cccs3)N=C2S)cc1` (stereo not drawn), the AC50 (HeLa) is reported as > 350 µM (inactive), the EC50 [14] is reported as 7.74 µM (active) and the EC50 [15] is reported as 1.27 µM (active).
